Measurements: patent US20240208942A1, “METAP-2 INHIBITORS, PHARMACEUTICAL COMPOSITIONS AND THERAPEUTIC METHODS THEREOF” (CANWELL BIOTECH LIMITED, priority 2021, published 2024)

What follows are compounds tested against T1, recombinant human MetAP-2 (Homo sapiens, UniProt P50579) (assay: Enzymatic activity assay of Methionine aminopeptidase 2 (enzyme coupled assay, Met-Ala-Ser substrate)). Conditions: recombinant human MetAP-2 (His-Tev-MetAP-2), absorbance at 450 nm, kinetic mode, read-out: MeAP2 IC50.
T1 construct: His tag (N); TEV cleavage site (N); made in house
Assay type: biochemical
Method: The MetAP-2 activity was determined by an enzyme coupled assay using the tripeptide Met-Ala-Ser (MAS) as substrate and recombinant human MetAP-2 (His-Tev-MetAP-2, prepared in-house). The released methionine is converted by L-amino acid oxidase (AAO) to Met ox and hydrogen peroxide is released. In a second step horse radish peroxidase catalyses the oxidation of the leuko dye dianisidine to dianisidine ox with hydrogen peroxide as co-substrate. The produced dianisidine ox was detected photometrically as increase in absorbance at 450 nm. MetAP-2 activity was determined in a kinetic measurement mode. The release of one molecule methionine corresponds to the production of one molecule dianisidine ox. The MetAP-2 enzymatic activity is directly corresponding to the increase in absorbance per time.

T1 sequence (P50579 whole entry): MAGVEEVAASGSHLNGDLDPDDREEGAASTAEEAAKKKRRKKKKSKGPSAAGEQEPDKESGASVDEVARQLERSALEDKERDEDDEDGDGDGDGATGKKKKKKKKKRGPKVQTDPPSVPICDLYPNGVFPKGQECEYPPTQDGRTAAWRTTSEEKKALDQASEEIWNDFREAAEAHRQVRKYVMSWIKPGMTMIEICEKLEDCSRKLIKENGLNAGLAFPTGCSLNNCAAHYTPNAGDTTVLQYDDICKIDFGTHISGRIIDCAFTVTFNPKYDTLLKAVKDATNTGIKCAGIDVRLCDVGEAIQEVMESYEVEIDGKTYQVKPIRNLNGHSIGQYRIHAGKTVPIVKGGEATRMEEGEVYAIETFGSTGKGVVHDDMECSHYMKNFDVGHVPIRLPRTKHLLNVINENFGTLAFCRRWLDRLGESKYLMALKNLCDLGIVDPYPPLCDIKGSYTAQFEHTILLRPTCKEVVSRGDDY

IC50, > 10000 nM:
CP(C)(=O)c1ccc(N2CC[C@@](O)(C(=O)NCc3cc(F)cc(F)c3)C2=O)cn1 [Compound 6a]
CC(C)P(=O)(c1ccc(N2CC[C@@](O)(C(=O)NCc3cc(F)cc(Cl)c3)C2=O)cc1)C(C)C [Compound 7a]

IC50, 1000 to 10000 nM:
CP(C)(=O)c1ccc(N2CC[C@@](O)(C(=O)NCc3cc(F)cc(F)c3)C2=O)cc1 [Compound 1a, (R)-N-(3,5-difluorobenzyl)-1-(4-(dimethylphosphoryl)phenyl)-3-hydroxy-2-oxopyrrolidine-3-car boxamide]
CP(C)(=O)c1cccc(N2CC[C@@](O)(C(=O)NCc3cc(F)cc(F)c3)C2=O)c1 [Compound 2a]
CCP(=O)(CC)c1ccc(N2CC[C@@](O)(C(=O)NCc3cc(F)cc(F)c3)C2=O)cc1 [Compound 3a]
O=C(NCc1cc(F)cc(Cl)c1)[C@]1(O)CCN(c2ccc(P(=O)(C3CCC3)C3CCC3)cc2)C1=O [Compound 5a]
O=C(NCc1cc(F)cc(Cl)c1)[C@]1(O)CCN(c2ccc(P(=O)(C3CC3)C3CC3)cc2)C1=O [Compound 8a]
O=C(NCc1cc(F)cc(F)c1)[C@]1(O)CCN(c2ccc(P(=O)(C3CC3)C3CC3)cc2)C1=O [Compound 10a]
O=C1Nc2ccc(N3CC[C@@](O)(C(=O)NCc4cc(F)cc(Cl)c4)C3=O)cc2C12CC2 [Compound 13a]

IC50, < 1000 nM:
O=C(NCc1cc(F)cc(Cl)c1)C1(O)CCN(c2ccc(P(=O)(C3CCC3)C3CCC3)cc2)C1=O (racemic) [Compound 5-7]
CP(C)(=O)c1ccc(N2CC[C@](O)(C(=O)NCc3cc(F)cc(F)c3)C2=O)cc1 [Compound 1, (S)-N-(3,5-difluorobenzyl)-1-(4-(dimethylphosphoryl)phenyl)-3-hydroxy-2-oxopyrrolidine-3-arboxamide]
CP(C)(=O)c1cccc(N2CC[C@](O)(C(=O)NCc3cc(F)cc(F)c3)C2=O)c1 [Compound 2, (S)-N-(3,5-difluorobenzyl)-1-(3-(dimethylphosphoryl)phenyl)-3-hydroxy-2-oxopyrrolidine-3-carboxamide]
CCP(=O)(CC)c1ccc(N2CC[C@](O)(C(=O)NCc3cc(F)cc(F)c3)C2=O)cc1 [Compound 3, (S)-1-(4-(diethylphosphoryl)phenyl)-N-(3,5-difluorobenzyl)-3-hydroxy-2-oxopyrrolidine-3-c arboxamide]
CC(C)P(=O)(c1ccc(N2CC[C@](O)(C(=O)NCc3cc(F)cc(F)c3)C2=O)cc1)C(C)C [Compound 4, (S)-N-(3,5-difluorobenzyl)-1-(4-(diisopropylphosphoryl)phenyl)-3-hydroxy-2-oxopyrrolidine-3-carboxamide]
CC(C)P(=O)(c1ccc(N2CC[C@@](O)(C(=O)NCc3cc(F)cc(F)c3)C2=O)cc1)C(C)C [Compound 4a]
O=C(NCc1cc(F)cc(Cl)c1)[C@@]1(O)CCN(c2ccc(P(=O)(C3CCC3)C3CCC3)cc2)C1=O [Compound 5, (S)-N-(3-chloro-5-fluorobenzyl)-1-(4-(dicyclobutylphosphoryl)phenyl)-3-hydroxy-2-oxopyrr olidine-3-carboxamide]
CP(C)(=O)c1ccc(N2CC[C@](O)(C(=O)NCc3cc(F)cc(F)c3)C2=O)cn1 [Compound 6, (S)-N-(3,5-difluorobenzyl)-1-(6-(dimethylphosphoryl)pyridin-3-yl)-3-hydroxy-2-oxopyrrolidine-3-carboxamide]
CC(C)P(=O)(c1ccc(N2CC[C@](O)(C(=O)NCc3cc(F)cc(Cl)c3)C2=O)cc1)C(C)C [Compound 7, (S)-N-(3-chloro-5-fluorobenzyl)-1-(4-(diisopropylphosphoryl)phenyl)-3-hydroxy-2-oxopyrr olidine-3-carboxamide]
O=C(NCc1cc(F)cc(Cl)c1)[C@@]1(O)CCN(c2ccc(P(=O)(C3CC3)C3CC3)cc2)C1=O [Compound 8, (S)-N-(3-chloro-5-fluorobenzyl)-1-(4-(dicyclopropylphosphoryl)phenyl)-3-hydroxy-2-oxopy rrolidine-3-carboxamide]
CP(C)(=O)c1ccc(N2CC[C@](O)(C(=O)NCc3cc(F)cc(Cl)c3)C2=O)cc1 [Compound 9, (S)-N-(3-chloro-5-fluorobenzyl)-1-(4-(dimethylphosphoryl)phenyl)-3-hydroxy-2-oxopyrrolidine-3-carboxamide]
CP(C)(=O)c1ccc(N2CC[C@@](O)(C(=O)NCc3cc(F)cc(Cl)c3)C2=O)cc1 [Compound 9a]
O=C(NCc1cc(F)cc(F)c1)[C@@]1(O)CCN(c2ccc(P(=O)(C3CC3)C3CC3)cc2)C1=O [Compound 10, (S)-1-(4-(dicyclopropylphosphoryl)phenyl)-N-(3,5-difluorobenzyl)-3-hydroxy-2-oxopyrrolidine-3-carboxamide]
C[Si](C)(C)c1ccc(N2CC[C@](O)(C(=O)NCc3cc(F)cc(F)c3)C2=O)cc1 [Compound 11, (S)-N-(3,5-difluorobenzyl)-3-hydroxy-2-oxo-1-(4-(trimethylsilyl)phenyl)pyrrolidine-3-carbo xamide]
O=C(NCc1cc(F)cc(F)c1)[C@@]1(O)CCN(c2ccc3c(c2)C2(CC2)CN3)C1=O [Compound 12, (S)-N-(3,5-difluorobenzyl)-3-hydroxy-2-oxo-1-(spiro[cyclopropane-1,3′-indoline]-5′-yl)pyrr olidine-3-carboxamide]
O=C1Nc2ccc(N3CC[C@](O)(C(=O)NCc4cc(F)cc(Cl)c4)C3=O)cc2C12CC2 [Compound 13, (S)-N-(3-chloro-5-fluorobenzyl)-3-hydroxy-2-oxo-1-(2′-oxospiro[cyclopropane-1,3′-indoline]-5′-yl)pyrrolidine-3-carboxamide]
O=C1Nc2ccc(N3CC[C@](O)(C(=O)NCc4cc(F)cc(Cl)c4)C3=O)cc2C12CCC2 [Compound 14, (S)-N-(3-chloro-5-fluorobenzyl)-3-hydroxy-2-oxo-1-(2′-oxospiro[cyclobutane-1,3′-indoline]-5′-yl)pyrrolidine-3-carboxamide]
O=C1Nc2ccc(N3CC[C@](O)(C(=O)NCc4cc(F)cc(F)c4)C3=O)cc2C12CCCC2 [Compound 15, (S)-N-(3,5-difluorobenzyl)-3-hydroxy-2-oxo-1-(2′-oxospiro[cyclopentane-1,3′-indoline]-5′-yl)pyrrolidine-3-carboxamide]
O=C1Nc2ccc(N3CC[C@](O)(C(=O)NCc4cc(F)cc(F)c4)C3=O)cc2C12CC2 [Compound 16, (S)-N-(3,5-difluorobenzyl)-3-hydroxy-2-oxo-1-(2′-oxospiro[cyclopropane-1,3′-indoline]-5′-yl)pyrrolidine-3-carboxamide]
O=C1Nc2ncc(N3CC[C@](O)(C(=O)NCc4cc(F)cc(Cl)c4)C3=O)cc2C12CC2 [Compound 17, (S)-N-(3-chloro-5-fluorobenzyl)-3-hydroxy-2-oxo-1-(2′-oxo-1′,2′-dihydrospiro[cyclopropane-1,3′-pyrrolo[2,3-b]pyridine]-5′-yl)pyrrolidine-3-carboxamide]
O=C(NCc1cc(F)cc(F)c1)[C@@]1(O)CCN(c2ccc3c(c2)C2(CCC2)S(=O)(=O)N3)C1=O [Compound 18, (S)-N-(3,5-difluorobenzyl)-1-(2,2-dioxido-1H-spiro[benzo[c]isothiazole-3,1′-cyclobutan]-5-y 1)-3-hydroxy-2-oxopyrrolidine-3-carboxamide]
O=C(NCc1cc(F)cc(Cl)c1)[C@@]1(O)CCN(c2ccc3c(c2)C2(CCC2)S(=O)(=O)N3)C1=O [Compound 19, (S)-N-(3-chloro-5-fluorobenzyl)-1-(2,2-dioxido-1H-spiro[benzo[c]isothiazole-3,1′-cyclobutan]-5-yl)-3-hydroxy-2-oxopyrrolidine-3-carboxamide]
O=C(NCc1cc(F)cc(Cl)c1)[C@@]1(O)CCN(c2ccc3c(c2)C2(CC2)S(=O)(=O)N3)C1=O [Compound 20, (S)-N-(3-chloro-5-fluorobenzyl)-1-(2,2-dioxido-1H-spiro[benzo[c]isothiazole-3,1′-cyclopropan]-5-yl)-3-hydroxy-2-oxopyrrolidine-3-carboxamide]
NC(=O)c1cc2cc(N3CCC(O)(C(=O)NCc4cc(F)cc(F)c4)C3=O)sc2[nH]1 (stereo not drawn) [Compound 23, 2-(3-(3,5-difluorobenzylcarbamoyl)-3-hydroxy-2-oxopyrrolidin-1-yl)-6H-thieno[2,3-b]pyrro 1e-5-carboxamide]
